Experimental data reported in US10251871B2, “Compositions and methods for treatment of edema” (Memorial Sloan Kettering Cancer Center, priority 2015, dated 2019).

Key:
[1] = tested on: hind limb collecting lymphatics of non-operated animals; assay: Non-operated (sham) hind limb, NIR lymphatic imaging; assay type: in vivo, mice; conditions: tacrolimus, non-operated animals (anesthesia only, no surgery)
Source text: Upper panels are representative images of NIR lymphatic images of the hind limb lymphatics in sham operated mice (i.e., anesthesia without incision or PLND) following treatment with control or topical tacrolimus for 2 weeks. Quantification of collecting lymphatic vessel pulsation frequency following 3 or 14 days of treatment with tacrolimus is shown below.
This is important since previous studies have shown that perilymphatic iNOS expression is an important regulator of collecting lymphatic pumping capacity. Liao et al., Proc. Natl. Acad. Sci. USA 108:18784-18789 (2011).

[2] = tested on: blood vessel permeability; assay: Miles assay for vascular permeability after PLND; assay type: in vivo; conditions: topical tacrolimus 2 weeks, PLND mice, vs vehicle control
Protocol: Additionally, to ensure that the observed effects of tacrolimus on lymphatic function were not a result of decreased vascular permeability and blood vessel leakage, we performed a Miles assay to measure blood vessel permeability following PLND surgeries with and without tacrolimus. […] In-vivo detection of ROS was performed by bioluminescent imaging of NADPH oxidase as described by Han et al. (J. Vis. Exp. doi: 10.3791/3925 (2012)). Briefly, mice were systemically injected with L-012 (an analogue of luminol) (20 μg/g) dissolved in PBS at different time points after PLND and luminescent signals representing ROS at the PLND surgery site were imaged and quantified using IVIS spectrum 200 (Xenogen Corporation). Miles assay for vascular permeability was performed as described. Radu et al., J. Vis. Exp. doi: 10.3791/50062 (2013). Briefly, 200 μl of 0.5% sterile Evans blue was injected via tail vein to 2 weeks tacrolimus treated PLND mice. After 30 min PLND hind limbs were imaged to observe Evans blue leakage. Hind limbs were excised and incubated in formamide for 48 hrs. at 55° C. to extract the Evans blue. Extracted Evans blue was quantified by measuring absorbance at 610 nm.

[3] = tested on: corneal lymphatic and blood vessels; assay: Corneal lymphangiogenesis assay (suture placement); assay type: in vivo, mice; conditions: systemic tacrolimus 4 mg kg^−1 IP daily for 2 weeks after suture placement, vs vehicle
Source text: To determine the lymphangiogenic effects of tacrolimus in other inflammatory and wound models in which drainage of lymphatic fluid is not obstructed surgically, we next used two other models of inflammatory lymphangiogenesis. The cornea is a useful tissue for studying lymphangiogenesis because it is normally devoid of both blood and lymphatic vessels but develops both in the setting of inflammation. Cursiefen et al., J. Clin. Invest. 113:1040-1050 (2004). […] A corneal lymphangiogenesis assay was performed as previously reported. Cursiefen et al., Cornea 25:443-447 (2006). Briefly, 10-0 nylon sutures (Ethicon, Cincinnati, Ohio) were placed in the cornea at […]. Beginning immediately after suture placement, animals were treated with systemic tacrolimus or vehicle control daily for two weeks, followed by analysis using confocal microscopy (Leica Microsystems, Weitziar, Germany). […] Cutaneous lymphangiogenesis was assessed using an ear punch wound model as previously reported. […] Tile-scan images were obtained using a confocal microscope (Leica Microsystems, Weitziar, Germany) and skin within 400 μm of the wound edge was analyzed using Metamorph software (Molecular Devices, Sunnyvale, Calif.). Standardized (200 μm×200 μm) fields were analyzed for the number of branch points present per unit area by two blinded reviewers.

C=CC[C@@H]1/C=C(\C)C[C@H](C)C[C@H](OC)[C@H]2O[C@@](O)(C(=O)C(=O)N3CCCC[C@H]3C(=O)O[C@H](/C(C)=C/[C@@H]3CC[C@@H](O)[C@H](OC)C3)[C@H](C)[C@@H](O)CC1=O)[C@H](C)C[C@@H]2OC [tacrolimus]
lymphatic contraction frequency [1]: did not increase
perilymphatic accumulation of inflammatory cells [1]: did not increase
blood vessel permeability (Evans blue) [2]: no differences
increase in proliferation of corneal lymphatic vessels (LYVE-1+) [3]: 48%
